Assays:
[1] = Hydrolytic stability at pH 7.0 at 37 degree C; expressed as T1/2; assay type: physicochemical; details: buffer
[2] = Hydrolytic stability at pH 5.0 at 37 degree C; expressed as T1/2; assay type: physicochemical; details: buffer
L2987 [3] = test: In vitro inhibitory concentration of the unconjugated compound against human L2987 lung carcinoma cell line; assay type: functional, cell-based
L2987 [4] = test: Potency against human L2987 lung carcinoma cell line relative to that of DOX 1a; assay type: functional
L2987 [5] = test: In vitro inhibitory concentration of the BR96 conjugate of compound against human L2987 lung carcinoma cell line; assay type: functional, cell-based
[6] = Selectivity ratio determined as IC50 IgG-2b to that of IC50 BR96-2b; assay type: functional
L2987 [7] = test: (§1) Potency against human L2987 lung carcinoma cell line relative to that of BR96-1b; assay type: functional
L2987 [8] = test: In vitro inhibitory concentration of the IgG conjugate of compound against human L2987 lung carcinoma cell line; assay type: functional, cell-based
L2987 [9] = test: as §1; assay type: functional, cell-based
[10] = Selectivity ratio determined as IC50 IgG-3b to that of IC50 BR96-3b; assay type: functional
[11] = Selectivity ratio determined as IC50 IgG-1b to that of IC50 BR96-1b; assay type: functional

| half-life [1] | half-life [2] | IC50 (L2987 [3]) | IC50 (L2987 [5]) | SMILES | further results |
| --- | --- | --- | --- | --- | --- |
| > 95 h | 4.5 h | – | – | COc1cccc2c1C(=O)c1c(O)c3c(c(O)c1C2=O)C[C@@](O)(/C(CO)=N/NC(=O)CCCCCN1C(=O)CC(SCCO)C1=O)C[C@@H]3OC1C[C@H](N2CCOCC2)C(O)[C@H](C)O1 (stereo partly specified) | – |
| – | – | 30 nM | – | COc1cccc2c1C(=O)c1c(O)c3c(c(O)c1C2=O)C[C@@](O)(C(=O)CO)C[C@@H]3OC1C[C@H](NCCCCC(OC(C)=O)OC(C)=O)C(O)[C@H](C)O1 (stereo partly specified) | Relative potency (L2987 [4]): 10 |
| – | – | – | 30 nM | COc1cccc2c1C(=O)c1c(O)c3c(c(O)c1C2=O)C[C@@](O)(/C(CO)=N/NC(=O)CCCCCN1C(=O)CC(S)C1=O)C[C@@H]3OC1C[C@H](NCCCCC(OC(C)=O)OC(C)=O)C(O)[C@H](C)O1 (stereo partly specified) | Ratio [6]: 300; Relative potency (L2987 [7]): 30; IC50 (L2987 [8]): 10000 nM |
| > 120 h | 7 h | – | – | COc1cccc2c1C(=O)c1c(O)c3c(c(O)c1C2=O)C[C@@](O)(/C(CO)=N/NC(=O)CCCCCN1C(=O)CC(SCCO)C1=O)C[C@@H]3OC1C[C@H](N)C(O)[C@H](C)O1 (stereo partly specified) | – |
| – | – | – | 200 nM | COc1cccc2c1C(=O)c1c(O)c3c(c(O)c1C2=O)C[C@@](O)(/C(CO)=N/NC(=O)CCCCCN1C(=O)CC(S)C1=O)C[C@@H]3OC1C[C@H](N2CCOCC2)C(O)[C@H](C)O1 (stereo partly specified) | IC50 (L2987 [9]): 5000 nM; IC50 (L2987 [8]): 2000 nM; Ratio [10]: 10 |
| – | – | – | 1000 nM | COc1cccc2c1C(=O)c1c(O)c3c(c(O)c1C2=O)C[C@@](O)(/C(CO)=N/NC(=O)CCCCCN1C(=O)CC(S)C1=O)C[C@@H]3OC1C[C@H](N)C(O)[C@H](C)O1 (stereo partly specified) | Ratio [11]: 8 |
| – | – | 300 nM | – | COc1cccc2c1C(=O)c1c(O)c3c(c(O)c1C2=O)C[C@@](O)(C(=O)CO)C[C@@H]3O[C@H]1C[C@H](N)[C@H](O)[C@H](C)O1 [DOXORUBICIN] | – |
| > 100 h | 6.5 h | – | – | COc1cccc2c1C(=O)c1c(O)c3c(c(O)c1C2=O)C[C@@](O)(/C(CO)=N/NC(=O)CCCCCN1C(=O)CC(SCCO)C1=O)C[C@@H]3OC1C[C@H](NCCCCC(OC(C)=O)OC(C)=O)C(O)[C@H](C)O1 (stereo partly specified) | – |

| SMILES | half-life [1] | half-life [2] | IC50 (L2987 [3]) | IC50 (L2987 [5]) | further results |
| --- | --- | --- | --- | --- | --- |
| COc1cccc2c1C(=O)c1c(O)c3c(c(O)c1C2=O)C[C@@](O)(C(=O)CO)C[C@@H]3OC1C[C@H](N2CCOCC2)C(O)[C@H](C)O1 (stereo partly specified) | – | – | 40 nM | – | Relative potency (L2987 [4]): 8 |
